Measurements published in article PMC6277198, “Molecular basis for activation of lecithin:cholesterol acyltransferase by a compound that increases HDL cholesterol” (eLife, 2018).
Positions count from the first letter of the chain named.

Assays:
[1] = tested on: LPLA2 chimeric variants (S33Y, I53G, and S33Y/I53G); assay: Differential scanning fluorimetry; type: binding
LCAT R244A = target: T1, LCAT R244A (Homo sapiens, UniProt P04180, R268A); assay: DHE acyltransferase assay with peptide-based HDLs; type: biochemical
T1 construct: hydrolysis of 4-methylumbelliferyl palmitate (MUP) by full-length LCAT; made in house; host or cells: HEK293F (transient transfection, secreted)
T1 sequence (P04180 25-440 R268A): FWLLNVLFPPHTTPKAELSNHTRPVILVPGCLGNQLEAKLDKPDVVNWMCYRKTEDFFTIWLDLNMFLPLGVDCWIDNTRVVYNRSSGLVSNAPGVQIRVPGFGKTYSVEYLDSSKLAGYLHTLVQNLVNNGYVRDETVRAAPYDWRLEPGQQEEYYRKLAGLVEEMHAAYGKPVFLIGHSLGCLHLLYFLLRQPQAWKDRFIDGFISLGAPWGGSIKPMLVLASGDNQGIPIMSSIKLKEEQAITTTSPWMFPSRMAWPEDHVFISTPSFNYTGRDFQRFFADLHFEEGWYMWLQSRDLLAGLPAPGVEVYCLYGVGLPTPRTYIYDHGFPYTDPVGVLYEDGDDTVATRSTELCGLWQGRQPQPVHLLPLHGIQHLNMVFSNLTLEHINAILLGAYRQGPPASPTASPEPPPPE
Description: (§1) Peptide-based HDLs were used in this assay as there is no difference between peptide HDLs and ApoA-I HDLs in both HDL binding and acyltransferase assays ([Manthei et al., 2017]). The peptide HDLs were made using the ESP24218 peptide with the sequence […] ([Dassuex et al., 1999]; [Li et al., 2015]) with a DPPC:POPC:DHE ratio of 47:47:6 as previously described ([Manthei et al., 2017]). The assay was performed in 384-well low volume black microplates (Corning 4514) with a total assay volume of 16 μL. In each reaction, LCAT was diluted in assay buffer to 15 μg mL^−1 in the presence of either 1% DMSO or 10 μM 2 with 1% DMSO. Compound 2 was used in this assay because it has lower background fluorescence than 1. The DHE HDLs were diluted in 1X PBS with 1 mM EDTA and 5 mM β-mercaptoethanol. 8 μL of the HDLs were added to the plate, and the reactions were initiated with 8 μL of LCAT, so that LCAT was assayed at 7.5 μg mL^−1 with and without 5 μM compound with a range of DHE concentrations from 0 to 50 μM. The reactions were stopped after 25 min at 37 °C with the addition of 4 μL of stop solution (1X PBS with 1 mM EDTA, 5 U mL^−1 cholesterol oxidase (COx), and 7% Triton X100). Following the addition of stop solution, the plates were incubated for another 60 min at 37 °C to allow for the COx to react. After the plates were re-equilibrated at room temperature, fluorescence was determined on a SpectraMax plate reader with excitation at 325 nm and emission at 425 nm, with a 420 nm cutoff. Reactions without LCAT were used for background subtraction, and reactions without LCAT and stop solution lacking COx were used to generate a standard curve for DHE. Reactions were performed in triplicate with three independent experiments per LCAT variant. Data were processed via background subtraction to remove excess fluorescence that results from the higher concentrations of DHE. […] Outliers were removed using automatic outlier elimination within Prism. For statistical analysis, the Vmax for each variant was compared to WT using a one-way analysis of variance followed by Tukey’s multiple comparisons post-test in GraphPad Prism.
(§2) To determine EC50 values, compound 2 was titrated from 0.004 to 10 μM, and the DHE concentration was set at 50 μM. LCAT was diluted in assay buffer and compound 2 dilutions were made with assay buffer containing 5.3% DMSO. 1.5 μL compound was added, then 6.5 μL LCAT, followed by 8 μL DHE. Dilutions were adjusted so that LCAT was assayed at 7.5 μg mL^−1, as above. All values were background subtracted to buffer with the same concentration of compound 2. A standard curve was included in one experiment with DHE from 0 to 50 μM in order to adjust the final fluorescence values to a rate by dividing by the slope of the line and time (25 min), as above. Outliers were removed using automatic outlier elimination within Prism. For statistical analysis, the EC50 for each variant was compared to WT using a one-way analysis of variance followed by Tukey’s multiple comparisons post-test in GraphPad Prism.

LCAT Y51S/G71I = target: T2, LCAT Y51S/G71I (Homo sapiens, UniProt P04180, G95I/Y75S); assay: DHE acyltransferase assay with peptide-based HDLs; type: biochemical
T2 construct: hydrolysis of 4-methylumbelliferyl palmitate (MUP) by full-length LCAT; made in house; host or cells: HEK293F (transient transfection, secreted)
T2 sequence (P04180 25-440 Y75S/G95I): T1 sequence (P04180 25-440 R268A) with Y51S, G71I, A244R
Description: as §1, §2

LCAT R244H = target: T3, LCAT R244H (Homo sapiens, UniProt P04180, R268H); assay: DHE acyltransferase assay with peptide-based HDLs; type: biochemical
T3 construct: hydrolysis of 4-methylumbelliferyl palmitate (MUP) by full-length LCAT; made in house; host or cells: HEK293F (transient transfection, secreted)
T3 sequence (P04180 25-440 R268H): T1 sequence (P04180 25-440 R268A) with A244H
Description: as §1, §2

[2] = compound 2 titrated from 0.004 to 10 μM, DHE 50 μM
[3] = highest concentration tested, 10 μM compound 2

| Structure (SMILES) | Thermal stabilization (DSF) [1] | EC50 (LCAT R244A; [2]) [nM] | acyltransferase rate (LCAT R244A; [3]) [µM/h] | acyltransferase activity in the presence of compound 2 (LCAT Y51S/G71I; Y51S/G71I variant) | DHE assay EC50 (LCAT Y51S/G71I; Y51S/G71I, compound 2 titrated from 0.004 to 10 μM, DHE 50 μM) | EC50 (LCAT R244H; [2]) [µM] | acyltransferase rate (LCAT R244H; [3]) [µM/h] |
| --- | --- | --- | --- | --- | --- | --- | --- |
| N#Cc1cnc(N2CCC(c3n[nH]c4c3C(O)(C(F)(F)F)CC(=O)N4)CC2)cc1C(F)(F)F (stereo not shown) [compound 1, 6-(4-(4-Hydroxy-6-oxo-4-(trifluoromethyl)−4,5,6,7-tetrahydro-1H-pyrazolo[3,4-b]pyridin-3-yl)piperidin-1-yl)−4-(trifluoromethyl)nicotinonitrile] | unable to be stabilized | – | – | – | – | – | – |
| O=C1CC(O)(C(F)(F)F)c2c(C3CCN(c4cnc(C(F)(F)F)cn4)CC3)n[nH]c2N1 (stereo not shown) [compound 2, 4-Hydroxy-4-(trifluoromethyl)−3-(1-(5-(trifluoromethyl)pyrazin-2-yl)piperidin-4-yl)−4,5-dihydro-1H-pyrazolo[3,4-b]pyridin-6(7H)-one] | – | 760 ± 200 | 18 | failed to increase activity | no effect | 4.6 ± 2 | 26 |
